# Entries after “also recorded” stand apart in the source; their conditions may differ. Like-named read-outs stand apart in the source and are kept apart here.
# How the values were obtained:
# [1] = in vivo; cited from earlier work
# [2] = no reference given; cited from earlier work
# [3] = cited from earlier work
# HIV = conditions: target value used for colocalization; cited from earlier work
# [4] = ARV concentrations in brain tissue, CSF and plasma by LC-MS/MS, NHPs
# [5] = ARV concentrations in brain tissue and plasma by LC-MS/MS, hu-HSC-RAG mice; conditions: p=0.29
# [6] = in vivo
# RT-SHIV [7] = test: 90% inhibitory quotient; parameters: IQ90 in NHP brain tissue, one individual animal: unit not given beside the values; conditions: for IQ90 in NHP brain tissue, one individual animal: the single animal above 1
# RT-SHIV [8] = test: IC90 against the RT-SHIV strain of virus; format: cell-based
# in vitro = in vitro ADME, rhesus macaques; conditions: rhesus macaque, frontal cortex brain tissue homogenate
# [9] = in vivo; cited from earlier work; remark: listed apart in the source
# [10] = ARV concentrations in brain tissue and plasma by LC-MS/MS, BLT mice; conditions: BLT vs hu-HSC-RAG
compound,measurement,setting,value
"O=C1Nc2ccc(Cl)cc2[C@@](C#CC2CC2)(C(F)(F)F)O1 [EFV, efavirenz]","median brain tissue concentration, human post-mortem",[1],900 ng/g
same,BCS class,[2],class I or class II
same,blood plasma protein binding,[3]; ref Boffito et al. 2003,99.5%
same,IC50 target,HIV,2 ng/g
same,"total brain tissue concentration, median [range]","[4]; NHP, LC-MS/MS, four brain regions combined",775 ng/g
"CC(Cn1cnc2c(N)ncnc21)OCP(=O)(O)OP(=O)(O)OP(=O)(O)O (stereo in doubt) [TFV-dp, tenofovir diphosphate]",fold higher median TFV-dp brain concentration in hu-HSC-RAG vs BLT mice,[5],10 fold
same,TFV-dp concentration range in all brain tissue samples,[6],"851 to 179,000 fmol/g of tissue"
same,"IQ90 in NHP brain tissue, one individual animal",RT-SHIV [7],1.1
maraviroc [MVC],fold higher IC90 against RT-SHIV than against clinical HIV-1 isolates,RT-SHIV [8],100 fold
"COC(=O)N[C@H](C(=O)N[C@@H](Cc1ccccc1)[C@@H](O)CN(Cc1ccc(-c2ccccn2)cc1)NC(=O)[C@@H](NC(=O)OC)C(C)(C)C)C(C)(C)C [ATZ, atazanavir]",BCS class,[2],class I or class II
same,fraction unbound at 18 h,in vitro,0.76
same,CSF concentrations,[9],5 to 21 ng/mL
same,fold higher IC90 against RT-SHIV than against clinical HIV-1 isolates,RT-SHIV [8],"1,000 fold"
"Nc1nc(=O)n([C@@H]2CS[C@H](CO)O2)cc1F [FTC, emtricitabine]",protein binding in plasma,[3]; plasma,< 10%
same,fold lower CSF concentration in NHPs than human concentrations,[4]; compared with ref Calcagno (2014),approximately 3 fold
same,fold higher brain tissue penetration in BLT mice compared to hu-HSC-RAG mice,[10],5 fold
"Nc1nc(=O)n([C@@H]2CS[C@H](COP(=O)(O)OP(=O)(O)OP(=O)(O)O)O2)cc1F [FTC-tp, emtricitabine triphosphate]",FTC-tp in brain tissue,all three animal models,not detected; also recorded: not quantifiable
"C[C@H](Cn1cnc2c(N)ncnc21)OCP(=O)(O)O [TFV, tenofovir]","median brain tissue concentration, human post-mortem",[1],80 ng/g
same,protein binding in plasma,[3]; no reference given,< 10%
same,fold higher brain tissue penetration in BLT mice compared to hu-HSC-RAG mice,[10],3 fold
"Cc1nnc(C(=O)NC(C)(C)c2nc(C(=O)NCc3ccc(F)cc3)c(O)c(=O)n2C)o1 [RAL, raltegravir]",Kp at 1 day after the last of ten days of dosing,"both, hu-HSC-Rag and BLT (mice), mouse (humanized) and rhesus macaque, in vivo",0.11 to 0.12
same,IQ90 from total brain tissue concentrations,RT-SHIV [7]; six of the remaining seven animals,< 1
same,IQ90 from unbound brain tissue concentration,RT-SHIV [7]; the one animal where unbound concentration could be measured,0.07
same,"IQ90 in NHP brain tissue, one individual animal",RT-SHIV [7],1.1
